Data set [1] deals with mPTP. Description: mPTP mitochondria membrane potential flow cytometry assay in stimulated human platelets. It is filed as cell-based. How it is done: The mPTP cell based assay was performed using a mitochondria membrane potential flow cytometry assay in stimulated human platelets. Simulation of platelets results in the rapid influx of Ca^2+ across the platelet membrane. The Ca^2+ is then sequestered by mitochondria until the threshold for mPTP opening is reached, at which point the pore opens and the mitochondrial membrane potential is dissipated. Changes in mitochondria membrane potential due to mPTP opening can be quantified in live platelets using standard mitochondrial membrane potential dyes e.g. 3,3′-dihexyloxacarbocyanine Iodide; DiOC6(3), enabling pharmacological characterisation of mPTP inhibitors.
Fresh human blood (20 ml) was collected from consenting donors into 3.2% sodium citrate. Platelets were isolated by centrifugation at 200 g for 20 min at room temperature, then the platelet rich plasma layer transferred to a fresh tube. Prostaglandin 12 is added to the platelets at a final concentration of 20 ng/ml. After centrifugation at 640 g for 10 min, the platelet rich pellet was resuspended in 4 ml HEPES assay buffer (137 mM NaCl, 2.7 mM KCl, 11.9 mM NaHCO3, 0.42 mM NaH2PO4, 1 mM MgCl2, 5.5 mM glucose, 0.1% bovine serum albumin, 10 mM HEPES adjusted to pH 7.4) and stored on ice.
Test compounds were prepared from 10 mM stocks in DMSO and serially diluted in assay buffer containing 0.4% DMSO and 25 μl transferred into a 96 well plate. Platelets were loaded with the mitochondrial membrane potential dye DiOC6(3) (3,3′-dihexyloxacarbocyanine Iodide; Invitrogen) at 200 nM for 30 min, then 50 μl plated into each well of the 96 well plate containing diluted test compound and incubated for 15 min. Control wells included DMSO (0.1% final concentration) only or 5 μM cyclosporin A. Platelets were then stimulation with the addition of assay buffer (25 μl) containing CaCl2, alpha thrombin and Convulxin to achieve a final concentrations of 2 mM, 0.017 U/ml and 0.167 μg/ml respectively and incubated for 14 min. The reaction was stopped by the addition of 25 μl 15 mM EDTA in assay buffer. The mitochondrial membrane potential across the population of platelets in each well was then quantified by flow cytometry using a Guava easyCyte 5 Benchtop Flow Cytometer with 3000 events per well. The percentage of platelets with a depolarised mitochondrial membrane potential was calculated for each well. A pIC50 for each compound was then calculated using a standard four parameter curve fit model (GraphPad Prism).

Data set [2] has as its system mPTP. Description: mPTP activity assay in isolated rat brain mitochondria. The conditions noted are these: isolated rat brain mitochondria. It is filed as biochemical. The procedure: mPTP activity was measured in brain mitochondria freshly isolated from female Sprague Dawley (250 to 300 gram) rats. Anaesthetised rats were perfused in-situ with ˜40 ml cold Dulbecco's Phosphate Buffered Saline (DPBS), then brains dissected and transferred into 30 ml Isolation Buffer (225 mM mannitol, 75 mM sucrose, 1 mM EGTA, adjusted to pH 7.4 with 1 M NaOH). The brain was minced using tweezers and a scalpel into ˜5 mm pieces then transferred into a 50 ml Potterton Dounce homogenization tube on ice containing 10 ml ice-cold isolation buffer (as above with addition of Complete Protease inhibitor; 1 tablet per 50 ml buffer).
Homogenisation was carried out using a […] pestle at 1800 rpm. The slurry was centrifuged at 2000 g for 10 min at 4° C., then the supernatant centrifuged at 12,000 g for 9 min. The pellet was resuspended with a dounce homogeniser in isolation buffer as above but with the addition of 0.02% digitonin, centrifuged at 12,000 g for 11 min and finally resuspended in 5 ml modified isolation buffer (as above but with EGTA reduced to 0.1 mM).
Test compounds were prepared in 384 well polypropylene assay plates as described above for the liver mitochondria assay. A stock mitochondria/Fluo5N assay solution was prepared in 5.6 ml assay buffer (120 mM mannitol, 40 mM MOPS, 5 mM KH2PO4, 60 mM KCl, 10 mM pyruvate, 2 mM malate, 2 mM MgCl2, 20 μM ADP, 1.26 μM oligomycin A, adjusted to pH 7.4) supplemented with Fluo5N pentapotassium salt (2 μM) and 1 ml mitochondria suspension, then transferred (15 μl) into the assay plate containing test compounds and incubated for 10 min at RT. Assay plates were then transferred to a FLIPR Tetra plate reader (Molecular Devices). Dye fluorescence was then measured every 3 sec for a total of 10 min. After 12 sec, a 2.5 μl bolus of Ca2+ (75 μM) was added from a source plate containing 675 μM CaCl2) in FLIPR assay buffer. IC50 values for test compounds were calculated using the fluorescence value collected at the 10 min timepoint with % inhibition calculated using the DMSO control and cyclosporin A values at […].

Data set [3] in a line: Microsomal clearance assay. The settings on record: rat liver microsomes; average value from two experiments. It is filed as in vitro ADME. How it is done: The microsomal stability of test compounds was evaluated using rat liver microsomes (BiolVT) with and without the cofactors nicotinamide adenine dinucleotide phosphate (NADPH) and undine-diphosphate-glucuronic acid (UDPGA). Reactions were performed in a final volume of 250 μl pre-warmed (37° C.) 100 mM phosphate buffer containing 5 mM MgCl2, 0.025 mg/ml alamethicin, and 0.5 mg/ml rat liver microsomes. NADPH and UDPGA were included at 1 mM and 2 mM respectively, where appropriate. Reactions were started with the addition of 1 μM (final concentration) test compound. Verapamil was used as the positive control. Solutions were incubated in a water bath at 37° C. and aliquots collected at 0.5, 5, 15, 30 and 60 min. Reactions were stopped by the addition of 5 volumes of cold acetonitrile with internal standards (200 nM caffeine and 100 nM tolbutamide). Samples were centrifuged at 3220 g for 40 min. An aliquot of supernatant was diluted 1:1 In ultra-pure H2O, then used for LC-MS/MS analysis. Peak areas were determined from extracted ion chromatograms. The slope value, k, was determined by linear regression of the natural logarithm of the remaining percentage of the parent drug vs. incubation time curve. The in vitro half-life (in vitro t½) was determined from the slope value: in vitro t½=0.693/k. Conversion of the in vitro t½ (min) into the in vitro intrinsic clearance (in vitro CLint, in μL/min/mg protein) was done using the following equation (mean of duplicate determinations): […]
In general terms: Liver microsomes are vesicles of endoplasmic reticulum, rich in cytochrome P450 enzymes.

Marks after values point to notes of the source that are not given here.

For the compound `Cc1c(F)cccc1NC(=O)/C=C/c1ccc2cn[nH]c2c1` [Comparative Example 1, (E)-N-(2-methyl-3-fluorophenyl)-3-(1H-indazol-6-yl)acrylamide, reference compound], the “mPTP Human Platelets pIC50” value in the data set on mPTP [1] amounted to 6.9. The figures for the “mPTP Rat brain pIC50” value in the data set on mPTP [2] and in the data set on mPTP [2] (average value from a larger number of experiments) were 7.6 and 7.5***, respectively. The compound further yielded a microsomal CLint at 1 µM in data set [3] of 43 µL/min/mg. In data set [3], `Cc1c(F)cccc1NC(=O)/C=C/c1ccc2c(c1F)NC(=O)C2` [Example 5, (E)-N-(3-fluoro-2-methylphenyl)-3-(7-fluoro-2-oxoindolin-6-yl)acrylamide] returned a microsomal CLint at 1 µM of 17 µL/min/mg. Consider `Cc1c(F)cccc1NC(=O)/C=C/c1ccc2oc(=O)[nH]c2c1` [Example 6, (E)-N-(3-fluoro-2-methylphenyl)-3-(2-oxo-2,3-dihydrobenzo[d]oxazol-5-yl)acrylamide], for which the “mPTP Human Platelets pIC50” value in the data set on mPTP [1] stood at 7.0. Further, the microsomal CLint at 1 µM in data set [3] was 17 µL/min/mg. Regarding `Cc1c(F)cccc1NC(=O)/C=C/c1ccc2c(c1)[nH]c(=O)n2C` [Example 7, (E)-N-(3-fluoro-2-methylphenyl)-3-(1-methyl-2-oxo-2,3-dihydro-1H-benzo[d]imidazol-5-yl)acrylamide], the “mPTP Human Platelets pIC50” value in the data set on mPTP [1] was 7.2. Besides, the “mPTP Rat brain pIC50” value in the data set on mPTP [2] is given as 6.9. This compound also displayed an intrinsic clearance (microsomal CLint) at 1 µM in data set [3] of 6.5 µL/min/mg. On to `Cc1c(F)cccc1NC(=O)/C=C/c1ccc2c(c1)NC(=O)C2C` (stereo not shown) [Example 8, (E)-N-(3-fluoro-2-methylphenyl)-3-(3-methyl-2-oxoindolin-6-yl)acrylamide], for which, in data set [3], the microsomal CLint at 1 µM is 13 µL/min/mg. Turning to `Cc1c(F)cccc1NC(=O)/C=C/c1ccc2c(c1)NC(=O)C2` [Example 10, (E)-N-(3-fluoro-2-methylphenyl)-3-(2-oxoindolin-6-yl)acrylamide], in the data set on mPTP [1], the “mPTP Human Platelets pIC50” value was 7.0. In the data set with mPTP [2], the “mPTP Rat brain pIC50” value is reported as 6.5. Also, the intrinsic clearance (microsomal CLint) at 1 µM in data set [3] was determined as 13 µL/min/mg. On to `Cc1cccc(C)c1NC(=O)/C=C/c1ccc2c(c1)NC(=O)C2` [Example 19, (E)-N-(2,6-dimethylphenyl)-3-(2-oxoindolin-6-yl)acrylamide], for which the microsomal CLint at 1 µM in data set [3] came to 20 µL/min/mg. Regarding `CCn1c(=O)[nH]c2cc(/C=C/C(=O)Nc3cccc(F)c3C)ccc21` [Example 22, (E)-3-(1-ethyl-2-oxo-2,3-dihydro-1H-benzo[d]imidazol-5-yl)-N-(3-fluoro-2-methylphenyl)acrylamide], in data set [3], the microsomal CLint at 1 µM came to 9.85 µL/min/mg. In data set [3], `Cc1c(F)cccc1NC(=O)/C=C/c1ccc2c(c1)[nH]c(=O)n2C1CC1` [Example 23, (E)-3-(1-cyclopropyl-2-oxo-2,3-dihydro-1H-benzo[d]imidazol-5-yl)-N-(3-fluoro-2-methylphenyl)acrylamide] had a microsomal CLint at 1 µM of 9.8 µL/min/mg. The same measure, in the same setting: to `Cc1n[nH]c2cc(/C=C/C(=O)NC3CCc4ccccc43)ccc12` (stereo not shown) [Example 25, (E)-N-(2,3-dihydro-1H-inden-1-yl)-3-(3-methyl-1H-indazol-6-yl)acrylamide] belongs 52.9 µL/min/mg.

With `Cc1ccc(F)c(C)c1NC(=O)/C=C/c1ccc2c(c1)[nH]c(=O)n2C` [Example 30, (E)-N-(3-fluoro-2,6-dimethylphenyl)-3-(1-methyl-2-oxo-2,3-dihydro-1H-benzo[d]imidazol-5-yl)acrylamide], the “mPTP Rat brain pIC50” value in the data set with mPTP [2] came to 7.6. In data set [3], `Cc1c(F)cccc1NC(=O)/C(F)=C/c1ccc2c(c1)NC(=O)C2` [Example 47, (Z)-2-fluoro-N-(3-fluoro-2-methylphenyl)-3-(2-oxoindolin-6-yl)acrylamide] returned an intrinsic clearance (microsomal CLint) at 1 µM of 36.8 µL/min/mg. Turning to `CO[C@H]1Cc2ccccc2[C@@H]1NC(=O)/C=C/c1ccc2c(C)n[nH]c2c1` [Example 54, (E)-N-((1S,2S)-2-methoxy-2,3-dihydro-1H-inden-1-yl)-3-(3-methyl-1H-indazol-6-yl)acrylamide], the “mPTP Rat brain pIC50” value in the data set on mPTP [2] was 7.7. On to `CO[C@H]1Cc2ccccc2[C@@H]1NC(=O)/C=C/c1ccc2c(F)n[nH]c2c1` [Example 73, (E)-3-(3-fluoro-1H-indazol-6-yl)-N-((1S,2S)-2-methoxy-2,3-dihydro-1H-Inden-1-yl)acrylamide], for which the “mPTP Rat brain pIC50” value in the data set with mPTP [2] came to 7.7.

As usually defined, the microsomal CLint is the rate of metabolic loss divided by the concentration. A low value points to greater metabolic stability.

The record behind these values is US20250179028A1, “ACRYLAMIDE COMPOUNDS” (NRG THERAPEUTICS LTD, priority 2022, published 2025).
